In US20100267561A1, “HERBICIDAL PYRIDAZINONE DERIVATIVES” (priority 2007, published 2010):

Key:
Assay type in all cases: in vivo
[1] = test system: ducksalad (Heteranthera limosa); experiment: Test B flooded paddy test plant response
Method in brief: (§1)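 Step one: raise plants to 2 leaves. Step two: flood pots 3 cm over the soil and apply compound into the water, keeping this depth. Step three: after 13–15 greenhouse days, score visually versus controls, 0–100, where 100 means complete control.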

[2] = test system: barnyardgrass (Echinochloa crus-galli); experiment: Test B flooded paddy test plant response
Method in brief: as §1

[3] = test system: rice (Oryza sativa); experiment: Test B flooded paddy test plant response
Method in brief: as §1

[4] = test system: umbrella sedge (Cyperus difformis); experiment: Test B flooded paddy test plant response
Method in brief: as §1

[5] = test system: velvetleaf (Abutilon theophrasti); experiment: Test A pre-/postemergence plant response
Method in brief: (§2)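 Seeds in loam soil/sand blend treated preemergence by directed soil spray, with simultaneous postemergence spray on 2–10 cm plants at one- to two-leaf stage; compounds in non-phytotoxic solvent with surfactant. Injury visually rated versus untreated controls after about 10 days in greenhouse, 0 (no effect) to 100 (complete control).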

[6] = test system: giant foxtail (Setaria faberi); experiment: Test A pre-/postemergence plant response
Method in brief: as §2

[7] = test system: barnyardgrass (Echinochloa crus-galli); experiment: Test A pre-/postemergence plant response
Method in brief: as §2

[8] = test system: pigweed (Amaranthus retroflexus); experiment: Test A pre-/postemergence plant response
Method in brief: as §2

[9] = test system: corn (Zea mays); experiment: Test A pre-/postemergence plant response
Method in brief: as §2

[10] = test system: wheat (Triticum aestivum); experiment: Test A pre-/postemergence plant response
Method in brief: as §2

[11] = test system: morningglory (Ipomoea coccinea); experiment: Test A pre-/postemergence plant response
Method in brief: as §2

[12] = test system: large crabgrass (Digitaria sanguinalis); experiment: Test A pre-/postemergence plant response
Method in brief: as §2

[13] = Flood (flooded paddy test), 62 g ai/ha, scale 0 to 100, 0 no effect, 100 complete control
[14] = Flood (flooded paddy test), 125 g ai/ha, scale 0 to 100, 0 no effect, 100 complete control
[15] = Flood (flooded paddy test), 250 g ai/ha, scale 0 to 100, 0 no effect, 100 complete control
[16] = Flood, 31 g ai/ha, scale 0 to 100
[17] = Postemergence, 125 g ai/ha, 0 to 100 scale, 0 no effect, 100 complete control
[18] = Postemergence, 500 g ai/ha, 0 to 100 scale, 0 no effect, 100 complete control
[19] = Preemergence, 125 g ai/ha, 0 to 100 scale (0 no effect, 100 complete control)
[20] = Preemergence, 500 g ai/ha, 0 to 100 scale (0 no effect, 100 complete control)
[21] = Postemergence, 31 g ai/ha, 0 to 100 scale (0 no effect, 100 complete control)
[22] = Preemergence, 31 g ai/ha, 0 to 100 scale, 0 is no effect, 100 is complete control

SMILES: CCc1cc(-c2ccc(Cl)c(Cl)c2)nn1-c1c(O)cnn(C)c1=O [Compound 20]
- Plant response rating, Ducksalad [1, 13]: 0
- Plant response rating, Ducksalad [1, 14]: 0
- Plant response rating, Ducksalad [1, 15]: 0
- Plant response rating, Ducksalad [1, 16]: 0
- Plant response rating, Barnyardgrass [2, 13]: 0
- Plant response rating, Barnyardgrass [2, 14]: 0
- Plant response rating, Barnyardgrass [2, 15]: 0
- Plant response rating, Barnyardgrass [2, 16]: 0
- Plant response rating, Rice [3, 13]: 0
- Plant response rating, Rice [3, 14]: 0
- Plant response rating, Rice [3, 15]: 0
- Plant response rating, Rice [3, 16]: 0
- Plant response rating, Sedge, Umbrella [4, 13]: 0
- Plant response rating, Sedge, Umbrella [4, 14]: 0
- Plant response rating, Sedge, Umbrella [4, 15]: 0
- Plant response rating, Sedge, Umbrella [4, 16]: 0
- Plant response rating, Velvetleaf [5, 17]: 0
- Plant response rating, Velvetleaf [5, 18]: 0
- Plant response rating, Velvetleaf [5, 19]: 0
- Plant response rating, Velvetleaf [5, 20]: 0
- Plant response rating, Foxtail, Giant [6, 17]: 90
- Plant response rating, Foxtail, Giant [6, 18]: 100
- Plant response rating, Foxtail, Giant [6, 19]: 90
- Plant response rating, Foxtail, Giant [6, 20]: 100
- Plant response rating, Barnyardgrass [7, 17]: 80
- Plant response rating, Barnyardgrass [7, 18]: 100
- Plant response rating, Barnyardgrass [7, 19]: 90
- Plant response rating, Barnyardgrass [7, 20]: 100
- Plant response rating, Pigweed [8, 17]: 0
- Plant response rating, Pigweed [8, 18]: 0
- Plant response rating, Pigweed [8, 19]: 0
- Plant response rating, Pigweed [8, 20]: 0
- Plant response rating, Corn [9, 17]: 70
- Plant response rating, Corn [9, 18]: 90
- Plant response rating, Corn [9, 19]: 60
- Plant response rating, Corn [9, 20]: 90
- Plant response rating, Wheat [10, 17]: 50
- Plant response rating, Wheat [10, 18]: 70
- Plant response rating, Wheat [10, 19]: 60
- Plant response rating, Wheat [10, 20]: 80
- Plant response rating, Morningglory [11, 17]: 0
- Plant response rating, Morningglory [11, 18]: 0
- Plant response rating, Morningglory [11, 19]: 0
- Plant response rating, Morningglory [11, 20]: 0
- Plant response rating, Crabgrass, Large [12, 17]: 80
- Plant response rating, Crabgrass, Large [12, 18]: 100
- Plant response rating, Crabgrass, Large [12, 19]: 90
- Plant response rating, Crabgrass, Large [12, 20]: 100

SMILES: CCc1cc(-c2ccc(F)cc2)nn1-c1c(O)cnn(C)c1=O [Compound 25]
- Plant response rating, Ducksalad [1, 13]: 0
- Plant response rating, Ducksalad [1, 15]: 0
- Plant response rating, Barnyardgrass [2, 13]: 0
- Plant response rating, Barnyardgrass [2, 15]: 0
- Plant response rating, Rice [3, 13]: 0
- Plant response rating, Rice [3, 15]: 0
- Plant response rating, Sedge, Umbrella [4, 13]: 0
- Plant response rating, Sedge, Umbrella [4, 15]: 0
- Plant response rating, Velvetleaf [5, 21]: 0
- Plant response rating, Velvetleaf [5, 17]: 0
- Plant response rating, Velvetleaf [5, 22]: 0
- Plant response rating, Velvetleaf [5, 19]: 0
- Plant response rating, Foxtail, Giant [6, 21]: 90
- Plant response rating, Foxtail, Giant [6, 17]: 100
- Plant response rating, Foxtail, Giant [6, 22]: 40
- Plant response rating, Foxtail, Giant [6, 19]: 100
- Plant response rating, Barnyardgrass [7, 21]: 80
- Plant response rating, Barnyardgrass [7, 17]: 100
- Plant response rating, Barnyardgrass [7, 22]: 50
- Plant response rating, Barnyardgrass [7, 19]: 100
- Plant response rating, Pigweed [8, 21]: 0
- Plant response rating, Pigweed [8, 17]: 0
- Plant response rating, Pigweed [8, 22]: 0
- Plant response rating, Pigweed [8, 19]: 0
- Plant response rating, Corn [9, 21]: 20
- Plant response rating, Corn [9, 17]: 80
- Plant response rating, Corn [9, 22]: 0
- Plant response rating, Corn [9, 19]: 50
- Plant response rating, Wheat [10, 21]: 0
- Plant response rating, Wheat [10, 17]: 20
- Plant response rating, Wheat [10, 22]: 0
- Plant response rating, Wheat [10, 19]: 50
- Plant response rating, Morningglory [11, 21]: 0
- Plant response rating, Morningglory [11, 17]: 0
- Plant response rating, Morningglory [11, 22]: 0
- Plant response rating, Morningglory [11, 19]: 0
- Plant response rating, Crabgrass, Large [12, 21]: 60
- Plant response rating, Crabgrass, Large [12, 17]: 90
- Plant response rating, Crabgrass, Large [12, 22]: 20
- Plant response rating, Crabgrass, Large [12, 19]: 90
